The experiment deals with Mouse Experimental Autoimmune Encephalomyelitis (EAE) Model. The experiment in a line: Effect on a mouse experimental autoimmune encephalomyelitis (EAE) model. It counts as in vivo. Conditions: MBP-immunized mice, oral, once a day from the 5th day to 41st day after the immunization.

As to `C[C@](N)(CO)CCCc1ccc(Sc2cccc(C(F)(F)F)c2)cc1Cl.Cl` [compound 27, (R)-2-amino-5-[2-chloro-4-(3-trifluoromethylphenylthio)phenyl]-2-methylpentan-1-ol hydrochloride], the “administration dose showing maximum reaction (onset inhibition)” value was determined as 0.3 mg/kg. Also, for the setting “0.01 to 0.3 mg/kg, FIG. 1 and FIG. 2”, the “onset of disease (clinical symptom score, total score)” value was “inhibited the onset of disease dose-dependently”.
